Source: PMC11678824 (2024)

Key:
[1] = test system: ds26 (DNA, duplex) CAATCGGATCGAATTCGATCCGATTG; test: UV-Vis titration (Soret red shift, hypochromism); conditions: 100 mM K+ (KCl) plus potassium phosphate; 20 mM potassium phosphate, pH 6.8; ligand 2 µM; up to 2.5 equiv. DNA
[2] = test system: MYC (DNA, G4) TGAGGGTGGGTAGGGTGGGTAA; test: UV-Vis titration (Soret red shift, hypochromism); conditions: 100 mM K+ (KCl) plus potassium phosphate; 20 mM potassium phosphate, pH 6.8; ligand 2 µM; up to 2.5 equiv. DNA
[3] = test system: G4 Tel (DNA, G4) AGGGTTAGGGTTAGGGTTAGGG; test: UV-Vis titration (Soret red shift, hypochromism); conditions: 100 mM K+ (KCl) plus potassium phosphate; 20 mM potassium phosphate, pH 6.8; ligand 2 µM; up to 2.5 equiv. DNA
[4] = test system: KRAS (DNA, G4) AGGGCGGTGTGGGAATAGGGAA; test: UV-Vis titration (Soret red shift, hypochromism); conditions: 100 mM K+ (KCl) plus potassium phosphate; 20 mM potassium phosphate, pH 6.8; ligand 2 µM; up to 2.5 equiv. DNA
[5] = test system: G4 Tel (DNA, G4) AGGGTTAGGGTTAGGGTTAGGG; test: fluorescence titration (ligand emission); conditions: 100 mM K+ (KCl) plus potassium phosphate, 20 mM potassium phosphate, pH 6.8, ligand 2 µM, apparent
[6] = test system: G4 Tel (DNA, G4) AGGGTTAGGGTTAGGGTTAGGG; test: fluorescent intercalator displacement (FID); conditions: 100 mM K+ (KCl) plus potassium phosphate; 20 mM potassium phosphate, pH 6.8; thiazole orange 3.5 µM displaced; DNA 1 µM
[7] = test system: MYC (DNA, G4) TGAGGGTGGGTAGGGTGGGTAA; test: fluorescence titration (ligand emission); conditions: 100 mM K+ (KCl) plus potassium phosphate; 20 mM potassium phosphate, pH 6.8; ligand 2 µM; apparent; Hill n = 3.85
[8] = test system: KRAS (DNA, G4) AGGGCGGTGTGGGAATAGGGAA; test: fluorescence titration (ligand emission); conditions: 100 mM K+ (KCl) plus potassium phosphate; 20 mM potassium phosphate, pH 6.8; ligand 2 µM; apparent; Hill n = 1.59
[9] = test system: KRAS (DNA, G4) AGGGCGGTGTGGGAATAGGGAA; test: fluorescent intercalator displacement (FID); conditions: 100 mM K+ (KCl) plus potassium phosphate; 20 mM potassium phosphate, pH 6.8; thiazole orange 3.5 µM displaced; DNA 1 µM
[10] = test system: ds26 (DNA, duplex) CAATCGGATCGAATTCGATCCGATTG; test: fluorescent intercalator displacement (FID); conditions: 100 mM K+ (KCl) plus potassium phosphate; 20 mM potassium phosphate, pH 6.8; thiazole orange 3.5 µM displaced; DNA 1 µM
[11] = test system: MYC (DNA, G4) TGAGGGTGGGTAGGGTGGGTAA; test: fluorescent intercalator displacement (FID); conditions: 100 mM K+ (KCl) plus potassium phosphate; 20 mM potassium phosphate, pH 6.8; thiazole orange 3.5 µM displaced; DNA 1 µM
[12] = test system: ds26 (DNA, duplex) CAATCGGATCGAATTCGATCCGATTG; test: fluorescence titration (ligand emission); conditions: 100 mM K+ (KCl) plus potassium phosphate, 20 mM potassium phosphate, pH 6.8, ligand 2 µM, apparent

With `C[n+]1ccc(-c2c3nc(c(-c4cc[n+](C)cc4)c4ccc([nH]4)c(-c4cc[n+](C)cc4)c4nc(c(-c5cc[n+](C)cc5)c5ccc2[nH]5)C=C4)C=C3)cc1` the binding [1] was “yes”, the binding [2] was “yes” and the binding [3] was “yes”. The binding [4] was “yes”.
Compound `C[n+]1ccc(-c2c3nc(c(-c4cc[n+](C)cc4)c4ccc([n-]4)c(-c4cc[n+](C)cc4)c4nc(c(-c5cc[n+](C)cc5)c5ccc2[n-]5)C=C4)C=C3)cc1.[Zn+2]` has a KD ([5]; Hill n = 1.35) of 1300 ± 20 nM, a DC50 [6] of 340 ± 20 nM and a KD [7] of 1320 ± 130 nM. It also gave a KD [8] of 2720 ± 420 nM, a DC50 [9] of 370 ± 10 nM and a DC50 [10] of 650 ± 40 nM. It also gave a DC50 [11] of 200 ± 20 nM and a KD ([12]; Hill n = 0.67) of 2690 ± 20 nM.
`C[n+]1ccc(-c2c3nc(c(-c4cc[n+](C)cc4)c4ccc([n-]4)c(-c4cc[n+](C)cc4)c4nc(c(-c5cc[n+](C)cc5)c5ccc2[n-]5)C=C4)C=C3)cc1.[Ag+2]` showed a KD ([5]; Hill n = 1.0) of 630 ± 290 nM, a DC50 [6] of 1120 ± 270 nM and a DC50 [9] of 280 ± 10 nM. The DC50 [10] was 2000 ± 370 nM, the DC50 [11] was 180 ± 30 nM and the KD ([12]; Hill n = 0.49) was 10 ± 7 nM.
